Legend:
Type in all cases: functional, cell-based
MCF7 = experiment: Cytotoxicity against human MCF7 cells assessed as decrease in cell viability after 4 days by MTT assay; conditions: MCF7, 96 h
A549 = experiment: Cytotoxicity against human A549 cells assessed as decrease in cell viability after 4 days by MTT assay; conditions: A549, 96 h
HL-60 = experiment: Cytotoxicity against human HL60 cells assessed as decrease in cell viability after 4 days by MTT assay; conditions: HL-60, 96 h
SW480 = experiment: Cytotoxicity against human SW480 cells assessed as decrease in cell viability after 4 days by MTT assay; conditions: SW480, 96 h
SMMC-7721 = experiment: Cytotoxicity against human SMMC7721 cells assessed as decrease in cell viability after 4 days by MTT assay; conditions: SMMC-7721, 96 h

| Structure (SMILES) | IC50 (MCF7) | IC50 (A549) | IC50 (HL-60) | IC50 (SW480) | IC50 (SMMC-7721) |
| --- | --- | --- | --- | --- | --- |
| Cc1ccc(S(=O)(=O)Oc2ccc3c(c2C)[C@H](Cn2cc(-c4ccc(Br)cc4)nn2)[C@@]24CC(=O)[C@@](C)(CC[C@@H]32)C4)cc1 | > 20 µM | > 20 µM | > 20 µM | > 20 µM | > 20 µM |
| C=C1C[C@]23C[C@@]1(O)CC[C@@H]2c1cccc(C)c1[C@@H]3Cn1cc(-c2ccc(Br)cc2)nn1 | > 20 µM | > 20 µM | > 20 µM | > 20 µM | > 20 µM |
| C=C1C[C@]23C[C@@]1(O)CC[C@H]2c1ccc(OS(=O)(=O)c2ccc(C)cc2)c(C)c1[C@@H]3Cn1cc(-c2ccc(OC)cc2)nn1 | > 20 µM | > 20 µM | > 20 µM | > 20 µM | > 20 µM |
| C=C1C[C@]23C[C@@]1(O)CC[C@H]2c1cc(Br)c(O)c(C)c1[C@@H]3Cn1cc(-c2ccc(Cl)cc2)nn1 | 10.2 µM | 10.5 µM | 5.59 µM | 18 µM | 19.1 µM |
| Cc1c(O)ccc2c1[C@H](Cn1cc(-c3ccc(Cl)cc3)nn1)[C@@]13CC(=O)[C@@](C)(CC[C@@H]21)C3 | > 20 µM | > 20 µM | > 20 µM | > 20 µM | > 20 µM |
| C=C1C[C@]23C[C@@]1(O)CC[C@H]2c1cc(Br)c(O)c(C)c1[C@@H]3Cn1cc(-c2ccc(F)cc2)nn1 | 19.2 µM | 17.9 µM | 6.6 µM | > 20 µM | > 20 µM |
| C=C1C[C@]23C[C@@]1(O)CC[C@H]2c1ccc(O)c(C)c1[C@@H]3Cn1cc(-c2ccc(C)cc2)nn1 | > 20 µM | > 20 µM | > 20 µM | > 20 µM | > 20 µM |
| C=C1C[C@]23C[C@@]1(O)CC[C@H]2c1cc(Br)c(O)c(C)c1[C@@H]3Cn1cc(-c2ccccc2)nn1 | > 20 µM | > 20 µM | > 20 µM | > 20 µM | > 20 µM |
| C=C1C[C@]23C[C@@]1(O)CC[C@@H]2c1cccc(C)c1[C@@H]3Cn1cc(-c2ccc(OC)cc2)nn1 | > 20 µM | > 20 µM | > 20 µM | > 20 µM | > 20 µM |
| C=C1C[C@]23C[C@@]1(O)CC[C@@H]2c1cccc(C)c1[C@@H]3Cn1cc(-c2ccc(C(F)(F)F)cc2)nn1 | > 20 µM | > 20 µM | > 20 µM | > 20 µM | > 20 µM |
| C=C1C[C@]23C[C@@]1(O)CC[C@H]2c1ccc(O)c(C)c1[C@@H]3Cn1cc(-c2ccccn2)nn1 | > 20 µM | > 20 µM | > 20 µM | > 20 µM | > 20 µM |
| C=C1C[C@]23C[C@@]1(O)CC[C@@H]2c1cccc(C)c1[C@@H]3Cn1cc(-c2ccc(F)cc2)nn1 | > 20 µM | > 20 µM | > 20 µM | > 20 µM | > 20 µM |
| C=C1C[C@]23C[C@@]1(O)CC[C@H]2c1ccc(OS(=O)(=O)c2ccc(C)cc2)c(C)c1[C@@H]3Cn1cc(-c2ccc(Cl)cc2)nn1 | > 20 µM | > 20 µM | > 20 µM | > 20 µM | > 20 µM |
| C=C1C[C@]23C[C@@]1(O)CC[C@H]2c1cc(Br)c(O)c(C)c1[C@@H]3Cn1cc(-c2ccc(C(F)(F)F)cc2)nn1 | 8.1 µM | 9.28 µM | 7.38 µM | 15.2 µM | 12.8 µM |
| C=C1C[C@]23C[C@@]1(O)CC[C@H]2c1ccc(OS(=O)(=O)c2ccc(C)cc2)c(C)c1[C@@H]3Cn1cc(-c2ccc(C(F)(F)F)cc2)nn1 | > 20 µM | > 20 µM | > 20 µM | > 20 µM | > 20 µM |
| Cc1ccc(S(=O)(=O)Oc2ccc3c(c2C)[C@H](Cn2cc(-c4ccc(Cl)cc4)nn2)[C@@]24CC(=O)[C@@](C)(CC[C@@H]32)C4)cc1 | > 20 µM | > 20 µM | > 20 µM | > 20 µM | > 20 µM |
| C=C1C[C@]23C[C@@]1(O)CC[C@H]2c1cc(Br)c(O)c(C)c1[C@@H]3Cn1cc(-c2ccc(OC)cc2)nn1 | > 20 µM | > 20 µM | > 20 µM | > 20 µM | > 20 µM |
| C=C1C[C@]23C[C@@]1(O)CC[C@H]2c1ccc(OS(=O)(=O)c2ccc(C)cc2)c(C)c1[C@@H]3Cn1cc(-c2ccc(C)cc2)nn1 | > 20 µM | > 20 µM | > 20 µM | > 20 µM | > 20 µM |
| Cc1ccc(S(=O)(=O)Oc2ccc3c(c2C)[C@H](Cn2cc(-c4ccc(C(F)(F)F)cc4)nn2)[C@@]24CC(=O)[C@@](C)(CC[C@@H]32)C4)cc1 | > 20 µM | > 20 µM | > 20 µM | > 20 µM | > 20 µM |
| Cc1c(O)ccc2c1[C@H](Cn1cc(-c3ccc(C(F)(F)F)cc3)nn1)[C@@]13CC(=O)[C@@](C)(CC[C@@H]21)C3 | > 20 µM | > 20 µM | > 20 µM | > 20 µM | > 20 µM |
| C=C1C[C@]23C[C@@]1(O)CC[C@H]2c1ccc(OS(=O)(=O)c2ccc(C)cc2)c(C)c1[C@@H]3Cn1cc(-c2ccc(Br)cc2)nn1 | > 20 µM | > 20 µM | > 20 µM | > 20 µM | > 20 µM |
| C=C1C[C@]23C[C@@]1(O)CC[C@@H]2c1cccc(C)c1[C@@H]3Cn1cc(-c2ccccn2)nn1 | > 20 µM | > 20 µM | > 20 µM | > 20 µM | > 20 µM |
| C=C1C[C@]23C[C@@]1(O)CC[C@H]2c1ccc(O)c(C)c1[C@@H]3Cn1cc(-c2ccc(Br)cc2)nn1 | > 20 µM | > 20 µM | > 20 µM | > 20 µM | > 20 µM |
| Cc1ccc(S(=O)(=O)Oc2ccc3c(c2C)[C@H](Cn2cc(-c4ccc(F)cc4)nn2)[C@@]24CC(=O)[C@@](C)(CC[C@@H]32)C4)cc1 | > 20 µM | > 20 µM | > 20 µM | > 20 µM | > 20 µM |
| C=C1C[C@]23C[C@@]1(O)CC[C@H]2c1cc(Br)c(O)c(C)c1[C@@H]3Cn1cc(-c2ccccn2)nn1 | > 20 µM | > 20 µM | > 20 µM | > 20 µM | > 20 µM |
| Cc1c(O)ccc2c1[C@H](Cn1cc(-c3ccc(F)cc3)nn1)[C@@]13CC(=O)[C@@](C)(CC[C@@H]21)C3 | > 20 µM | > 20 µM | > 20 µM | > 20 µM | > 20 µM |
| C=C1C[C@]23C[C@@]1(O)CC[C@H]2c1ccc(OS(=O)(=O)c2ccc(C)cc2)c(C)c1[C@@H]3Cn1cc(-c2ccccn2)nn1 | > 20 µM | > 20 µM | > 20 µM | > 20 µM | > 20 µM |
| C=C1C[C@]23C[C@@]1(O)CC[C@H]2c1ccc(O)c(C)c1[C@@H]3Cn1cc(-c2ccc(F)cc2)nn1 | > 20 µM | > 20 µM | > 20 µM | > 20 µM | > 20 µM |
| C=C1C[C@]23C[C@@]1(O)CC[C@H]2c1ccc(O)c(C)c1[C@@H]3Cn1cc(-c2ccc(C(F)(F)F)cc2)nn1 | 12.4 µM | 10.4 µM | 8.95 µM | > 20 µM | > 20 µM |
